US7410975B2, “Small molecule toll-like receptor (TLR) antagonists” (Coley Pharmaceutical Group, Inc., priority 2003, dated 2008)
Counter-ions that a name gives are not always drawn.

Target: T1, human TLR3 (hTLR3) (Homo sapiens, UniProt O15455)
T1 construct: expressed in transfected cells
T1 sequence (O15455 24-904): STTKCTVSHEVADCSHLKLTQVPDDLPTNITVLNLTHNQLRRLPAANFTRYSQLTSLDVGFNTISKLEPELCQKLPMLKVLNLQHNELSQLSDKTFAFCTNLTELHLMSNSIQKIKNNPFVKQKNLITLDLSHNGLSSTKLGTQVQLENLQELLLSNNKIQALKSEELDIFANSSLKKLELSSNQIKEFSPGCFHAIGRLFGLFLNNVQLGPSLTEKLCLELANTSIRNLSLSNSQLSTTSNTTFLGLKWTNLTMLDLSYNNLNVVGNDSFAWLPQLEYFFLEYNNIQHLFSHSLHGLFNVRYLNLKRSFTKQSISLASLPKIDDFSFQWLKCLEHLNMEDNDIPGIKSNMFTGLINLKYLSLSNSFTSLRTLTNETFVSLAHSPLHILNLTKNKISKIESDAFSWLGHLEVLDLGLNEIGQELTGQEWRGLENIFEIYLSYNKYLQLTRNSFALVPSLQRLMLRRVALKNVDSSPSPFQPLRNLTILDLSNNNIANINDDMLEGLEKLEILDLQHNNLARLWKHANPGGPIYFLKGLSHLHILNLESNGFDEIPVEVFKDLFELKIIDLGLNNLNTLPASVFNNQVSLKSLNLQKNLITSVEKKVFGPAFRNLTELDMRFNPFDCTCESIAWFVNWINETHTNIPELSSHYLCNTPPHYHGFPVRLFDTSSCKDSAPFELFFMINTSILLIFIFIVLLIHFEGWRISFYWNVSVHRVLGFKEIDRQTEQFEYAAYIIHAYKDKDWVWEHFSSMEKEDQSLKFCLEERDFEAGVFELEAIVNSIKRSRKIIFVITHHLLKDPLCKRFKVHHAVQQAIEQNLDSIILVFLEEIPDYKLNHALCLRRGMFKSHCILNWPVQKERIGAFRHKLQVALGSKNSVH
Test: Antagonist screen, hTLR3-NFκB-293 cells, NF-κB-luciferase reporter, with EC50 of poly(I:C)
Type: cell-based
Conditions: for hTLR3 (inhibitory effect, antagonist score): compound at 0.5, 5, 50 μg/ml, EC50 concentration of poly(I:C), 16 h, NF-κB-luciferase; for hTLR3 (inhibitory effect): hTLR3-NFκB-293 cells, with EC50 of poly(I:C), compound at 0.5, 5 and 50 μg/ml
In short: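 Scores reflect clear reduction of NF-κB-luciferase signal versus baseline fold induction from EC50 poly(I:C) alone. Compounds tested in duplicate at three final concentrations (0.5, 5, 50 μg/ml) with ligand for 16 h stimulation of hTLR3-NFκB-293 cells plated overnight at 1.5×10^4 per well.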

SMILES	hTLR3 (inhibitory effect, antagonist score)	hTLR3 (inhibitory effect)
CN1CCc2cccc3c2[C@H]1Cc1ccc(O)c(O)c1-3.Cl [compound 101, Apomorphinehydrochloride (R, —)]	— (compounds for which there was no clear down regulation even at 50 μg/ml)	
CC(C)(C)c1ccc(C(O)CCCN2CCC(C(O)(c3ccccc3)c3ccccc3)CC2)cc1 (stereo not shown) [compound 138, Terfenadine]	11 (compounds for which there was clear down regulation only at 50 μg/ml)	
CN(C)C(=O)C(CCN1CCC(O)(c2ccc(Cl)cc2)CC1)(c1ccccc1)c1ccccc1 [compound 144, Loperamidehydrochloride]	11 (compounds for which there was clear down regulation only at 50 μg/ml)	
COc1cc2cc3c4cc(OC)c(OC)cc4cc[n+]3c(C)c2cc1OC [compound 431, Coralyne chloridehydrate]		— (compounds for which there was no clear down regulation even at 50 μg/ml)
COc1ccc(Cc2nccc3cc(OC)c(OC)cc23)cc1OC.Cl [compound 583, Papaverinehydrochloride]		— (compounds for which there was no clear down regulation even at 50 μg/ml)
COc1ccc2cc3[n+](cc2c1OC)CCc1cc2c(cc1-3)OCO2.[Cl-] [compound 586, Berberine chloride]		11 (compounds for which there was clear down regulation only at 50 μg/ml)
COc1cc2c(cc1O)C[C@H]1c3c(cc(O)c(OC)c3-2)CCN1C [compound 600, Boldine]	— (compounds for which there was no clear down regulation even at 50 μg/ml)	
CN1CCc2cc3c(c4c2C1Cc1ccccc1-4)OCO3.Cl (stereo not shown) [compound 669, Remerine hydrochloride]	— (compounds for which there was no clear down regulation even at 50 μg/ml)	
COc1cc2nc(N3CCN(C(=O)C4CCCO4)CC3)nc(N)c2cc1OC.Cl (stereo not shown) [compound 751, Terazosin hydrochloride]	— (compounds for which there was no clear down regulation even at 50 μg/ml)	
CC[N+](C)(CC)CCC[n+]1c(-c2ccccc2)c2cc(N)ccc2c2ccc(N)cc21.[I-].[I-] [compound 792, Propidium iodide]		12 (compounds for which there was clear down regulation at 5 μg/ml and 50 μg/ml)
CN(C)CCN(Cc1ccc(Cl)cc1)c1ccccn1.Cl [compound 807, Chloro-pyraminehydrochloride]		— (compounds for which there was no clear down regulation even at 50 μg/ml)
CCOc1ccc(Cc2nccc3cc(OCC)c(OCC)cc23)cc1OCC.Cl [compound 830, Ethaverinehydrochloride]		— (compounds for which there was no clear down regulation even at 50 μg/ml)
COc1cc2nc(N3CCN(C(=O)C4COc5ccccc5O4)CC3)nc(N)c2cc1OC.CS(=O)(=O)O (stereo not shown) [compound 858, Doxazosin mesylate]	— (compounds for which there was no clear down regulation even at 50 μg/ml)	
O=c1c2c(nc(NCCO)n1-c1ccccc1)-c1ccccc1CC21CCCC1 [compound 891]		11 (compounds for which there was clear down regulation only at 50 μg/ml)
O=c1c2c(nc(NCCO)n1Cc1ccccc1)-c1ccccc1CC21CCCC1 [compound 926]		12 (compounds for which there was clear down regulation at 5 μg/ml and 50 μg/ml)
CN1CCc2c1nc1ccccc1c2N [compound 990, 1-Methyl-2,3-dihydro-1H-pyrrolo[2,3-b]quinolin-4-ylamine]		— (compounds for which there was no clear down regulation even at 50 μg/ml)
CN1CCc2c1nc1ccccc1c2NC(=O)CN1CCCCCC1 [compound 1003]		11 (compounds for which there was clear down regulation only at 50 μg/ml)

SMILES	hTLR3 (inhibitory effect, antagonist score)	hTLR3 (inhibitory effect)
Cc1ccc2nc3c(c(N)c2c1)CCN3C [compound 1091, 1,6-Dimethyl-2,3-dihydro-1H-pyrrolo[2,3-b]quinolin-4-ylamine]		11 (compounds for which there was clear down regulation only at 50 μg/ml)
Cc1ccc(-n2c(NCCO)nc3c(c2=O)C2(CCCCC2)Cc2ccccc2-3)cc1 [compound 1137]		13 (compounds for which there was clear down regulation at 0.5 μg/ml, 5 μg/ml, and 50 μg/ml)
CN1CCc2c1nc1ccc(Br)cc1c2N [compound 1142, 6-Bromo-1-methyl-2,3-dihydro-1H-pyrrolo[2,3-b]quinolin-4-ylamine]		11 (compounds for which there was clear down regulation only at 50 μg/ml)
O=C1c2ccc(S(=O)(=O)c3ccc4c(c3)C(=O)N(c3ccccn3)C4=O)cc2C(=O)N1c1ccccn1 [compound 1163]		11 (compounds for which there was clear down regulation only at 50 μg/ml)
CN1CCCCc2c1nc1ccccc1c2N [compound 1185, 1-Methyl-2,3,4,5-tetrahydro-1H-azepino[2,3-b]quinolin-6-ylamine]		— (compounds for which there was no clear down regulation even at 50 μg/ml)
CN1CCc2c1nc1ccccc1c2NC(=O)CN1CCN(c2ccccc2)CC1 [compound 1212]		— (compounds for which there was no clear down regulation even at 50 μg/ml)
Cn1c(NN)nc2c(c1=O)C1(CCCC1)Cc1ccccc1-2 [compound 1213]		— (compounds for which there was no clear down regulation even at 50 μg/ml)
Nc1c2c(nc3ccccc13)N(Cc1ccccc1)CC2 [compound 1217, 1-Benzyl-2,3-dihydro-1H-pyrrolo[2,3-b]quinolin-4-ylamine]		12 (compounds for which there was clear down regulation at 5 μg/ml and 50 μg/ml)
CCCCCCN(CCCCCC)CC(=O)Nc1c2c(nc3ccccc13)N(C)CC2 [compound 1224]		12 (compounds for which there was clear down regulation at 5 μg/ml and 50 μg/ml)
O=C(CN1CCCC1)Nc1c2c(nc3ccccc13)N(c1ccccc1)CC2 [compound 1244]		11 (compounds for which there was clear down regulation only at 50 μg/ml)
NNc1nc2c(c(=O)n1C1CCCC1)C1(CCCC1)Cc1ccccc1-2 [compound 1248]		— (compounds for which there was no clear down regulation even at 50 μg/ml)
NNc1nc2c(c(=O)n1-c1ccccc1)C1(CCCC1)Cc1ccccc1-2 [compound 1320]		— (compounds for which there was no clear down regulation even at 50 μg/ml)
O=c1[nH]c(NCCO)nc2c1C1(CCCC1)Cc1ccccc1-2 [compound 1322]		11 (compounds for which there was clear down regulation only at 50 μg/ml)
CCCCCCCCCCCC(=O)Nc1c2c(nc3ccccc13)N(C)CC2 [compound 1334]		— (compounds for which there was no clear down regulation even at 50 μg/ml)
O=C1c2ccc(Oc3ccc(S(=O)(=O)c4ccc(Oc5ccc6c(c5)C(=O)N(c5ccccn5)C6=O)cc4)cc3)cc2C(=O)N1c1ccccn1 [compound 1367]		12 (compounds for which there was clear down regulation at 5 μg/ml and 50 μg/ml)
CCN(CC)CCCC(C)Nc1nc(/C=C/c2ccc(Cl)cc2)nc2cc3ccccc3cc12 (stereo not shown) [compound 2000]	12 (compounds for which there was clear down regulation at 5 μg/ml and 50 μg/ml)	
CCN(CC)CCCNc1nc(-c2ccccc2)nc2ccccc12 [compound 2001]	11 (compounds for which there was clear down regulation only at 50 μg/ml)	
